Measured values taken from PMC3423427, “Design and Synthesis of Potent N-Acylethanolamine-hydrolyzing Acid Amidase (NAAA) Inhibitor as Anti-Inflammatory Compounds” (PLoS ONE, 2012).
Like-named read-outs stand apart in the source and are kept apart here.

What was measured:
iNOS = details: RAW264.7, 0.5 µg/ml LPS
Description: (§1) HEK293 cells overexpressing rat NAAA (HEK293-rNAAA) and rat FAAH (HEK293-rFAAH) were kind gifts from Dr. Daniele Piomelli in University of California, Irvine. The stable-overexpressing cell lines were maintained in Dulbecco’s Modified Eagle Medium (DMEM, Hyclone, Beijing, China) supplemented with 10% FBS (Gibco®, Shanghai, China) containing 0.3 mg/mL G418. Mouse macrophage cells RAW264.7 and Human Embryonic Kidney cell HEK293 cells were purchased from American Type Culture Collection (ATCC, Beijing, China) and maintained in DMEM supplemented with 10% FBS in humidified 5% CO2 atmosphere at 37°C. RAW264.7 cells were plated and cultured overnight until 80% confluence and then incubated with a series of compound 16 of different concentrations for 30 min before challenged by LPS.
(§2) Total RNA was extracted from RAW264.7 cells with TRIzol (Invitrogen) and quantified by spectrophotometer (Beckman coulter, Shanghai, China). cDNA was synthesized from 1 µg of total RNA by using ReverTra Ace qPCR RT Kit (TOYOBO, Shanghai, China) following the manufacturer’s instructions. Real-time quantitative PCR was performed in a 7300 Real Time PCR System (Applied Biosystems, Shanghai, China) and RNA levels were normalized using glyceraldehyde-3-phosphate dehydrogenase (GAPDH) as an internal standard.

IL-6 = details: RAW264.7, 0.5 µg/ml LPS
Description: as §1, §2

[1] = target: T1, monoacylglycerol lipase (MGL) (Homo sapiens, UniProt Q99685); assay: MGL activity assay (Figure S1); assay type: biochemical; details: 100 µM (Figure S1)
T1 sequence (Q99685 1-303): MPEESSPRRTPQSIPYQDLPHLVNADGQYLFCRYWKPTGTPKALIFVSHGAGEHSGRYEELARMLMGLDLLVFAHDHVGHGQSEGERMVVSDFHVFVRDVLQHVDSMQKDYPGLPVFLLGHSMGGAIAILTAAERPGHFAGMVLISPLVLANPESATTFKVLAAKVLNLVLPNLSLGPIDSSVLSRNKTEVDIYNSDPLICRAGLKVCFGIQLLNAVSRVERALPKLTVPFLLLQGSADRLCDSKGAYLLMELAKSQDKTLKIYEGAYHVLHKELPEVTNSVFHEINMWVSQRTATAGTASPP
Description: Supplementary file pone.0043023.s001.pdf: Figure S1 Effect of vehicle (open bar) and compound 16 (100 µM, closed bars) on the activity of NAAA, FAAH, MGL, and ASAH. ***, p<0.001, one-way ANOVA, n = 3. (PDF) Click here for additional data file.

rat NAAA = target: T2, rat NAAA (Rattus norvegicus, UniProt Q5KTC7); assay: NAAA enzymatic assay (recombinant rNAAA protein, LC/MS); assay type: biochemical; details: IC50 ± S.E.M., triplicate; 25 µM heptadecenoylethanolamide, pH 5.0;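 note: reaction product measured by LC/MS using positive APCI ionization with MRM monitoring, quantified from chromatographic peak areas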
T2 construct: made in house; host or cells: HEK293 cells stably overexpressing rat NAAA (HEK293-rNAAA), a gift from D. Piomelli; crude 800 x g supernatant of sonicated cells
T2 sequence (Q5KTC7 34-362): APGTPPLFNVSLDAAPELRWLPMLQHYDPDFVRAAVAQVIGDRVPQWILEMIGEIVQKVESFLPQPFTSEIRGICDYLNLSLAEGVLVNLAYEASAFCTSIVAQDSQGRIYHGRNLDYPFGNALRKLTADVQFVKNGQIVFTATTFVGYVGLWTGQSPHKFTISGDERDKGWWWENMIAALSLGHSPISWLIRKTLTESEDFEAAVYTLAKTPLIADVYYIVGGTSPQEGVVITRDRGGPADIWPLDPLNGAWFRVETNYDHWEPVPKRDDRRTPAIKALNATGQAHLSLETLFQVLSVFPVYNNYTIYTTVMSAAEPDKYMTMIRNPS
Description: HEK293-rNAAA or HEK293-rFAAH cells were harvested, washed with PBS, sonicated in 20 mM Tris-HCl (pH 7.5) containing 0.32 M sucrose, and centrifuged at 800 × g for 15 min at 4°C. The supernatants were collected and protein concentrations were measured by BCA protein assay kit (Pierce, Shanghai, China). […] The reactions were terminated by adding 0.2 mL methanol containing 1 nmol heptadecanoic acid and analyzed in LC/MS.
We use an Agilent 1200-LC system coupled to a 3200Q TRAP-MS detector equipped with an ESI interface (Agilent Technologies, Shanghai, China). […] The column temperature was set at 40°C. […] Mass spectrometer (MS) detection was ionized by positive-ion atmospheric pressure chemical ionization mode (APCI^+) and monitored in MRM mode. […] Quantifications were calculated at chromatographic peak areas by using Analyst® version 1.4.1. software (Applied Biosystems).

RAW264.7 cells = tested on: RAW264.7 cells
Description: as §1
The column temperature was set at 40°C.

[2] = 24 hr
Description: To evaluate the biological and chemical stability of compound 16, we determined the degradation products of compound 16 in different chemical environments, as well as in rat plasma. First, chemical hydrolysis was evaluated at various pHs, i.e. pH 1.0 and pH 13.0. The hydrolytic product, biphenylpropanoic acid, if any, was detected by thin layer chromatography (TLC) after 24 hr incubation with 0.1 M HCl (pH 1.0) or […] (pH 13.0). […] Second, to test whether compound 16 was sensitive to thermal challenge, we placed compound 16 in 80°C incubator for 24 hr.

NAAA [3] = target: T3, NAAA (Rattus norvegicus, UniProt Q5KTC7); assay: NAAA activity in intact HEK293 cells overexpressing NAAA; assay type: cell-based; details: 10 µM, 8 hr
T3 sequence (Q5KTC7 34-362): T2 sequence (Q5KTC7 34-362)
Description: as §1

[4] = 80% rat plasma, 37°C
Description: In terms of the biological stability test, rat plasma was usually chosen as reference in vitro model for drug stability studies, [20], [21]. The hydrolysis of compound 16 was studied in 80% rat plasma at 37°C physiological condition.

NAAA [5] = target: T3, NAAA
Description: HEK293-rNAAA or HEK293-rFAAH cells were harvested, washed with PBS, sonicated in 20 mM Tris-HCl (pH 7.5) containing 0.32 M sucrose, and centrifuged at 800 × g for 15 min at 4°C. The supernatants were collected and protein concentrations were measured by BCA protein assay kit (Pierce, Shanghai, China). NAAA activity was measured by incubating 30 µg recombinant rNAAA protein with testing compound at 37°C for 30 min in 0.2 mL phosphate buffer (50 mM, pH 5.0) containing 0.1% Triton X-100, 3 mM DTT, and 25 µM heptadecenoylethanolamide as substrate. […] The reactions were terminated by adding 0.2 mL methanol containing 1 nmol heptadecanoic acid and analyzed in LC/MS.

NAAA [6] = target: T3, NAAA; assay: Dialysis NAAA assay; assay type: biochemical; set-up: made in house; host or cells: HEK293 cells stably overexpressing rat NAAA (HEK293-rNAAA), a gift from D. Piomelli; crude 800 x g supernatant of sonicated cells; details: 8 hr dialysis
Description: Dialysis assay was performed using Slide-A-Lyzer Dialysis Cassettes (Pierce, Shanghai, China). Briefly, 2 mg NAAA protein was incubated with compound 16 or dimethyl sulfoxide (DMSO) in 4 mL Tris-HCl buffer (50 mM, pH 5.0) for 10 minutes at 37°C. Mixed reaction solution was loaded onto a dialysis cartridge using a syringe and incubated in Tris-HCl buffer (50 mM, pH 5.0) at 4°C for 8 h. The samples were removed from Dialysis Cassettes by syringes for NAAA enzymatic assay.

O=C(CCc1ccc(-c2ccccc2)cc1)N1CCCC1 [Compound 16, 1–(2–Biphenyl–4–yl)ethyl–carbonyl pyrrolidine]
LPS-induced iNOS mRNA expression (iNOS): reversed dose-dependently | LPS-induced IL-6 mRNA expression (IL-6): reversed dose-dependently | inhibitory effect on MGL [1]: no inhibitory effect | IC50 (rat NAAA): 2.12 ± 0.41 µM | cellular PEA levels, LPS+compound (RAW264.7 cells; RAW264.7, 0.5 µg/mL LPS, LPS alone 0.67±0.12): 1.41±0.17 pmol/mg protein | cellular PEA levels, compound alone (RAW264.7 cells; RAW264.7, no LPS, vehicle 1.23±0.07): 1.30±0.23 pmol/mg protein | stability, 0.1M HCl ([2]; 0.1 M HCl (pH 1.0)): 100% | hydrolytic product on TLC, acidic medium ([2]; 0.1 M HCl (pH 1.0), TLC EtOAc/PE 1:2): no detectable biphenylpropanoic acid | hydrolytic product on TLC, basic medium ([2]; 0.1 M NaCl (pH 13.0) as printed, TLC EtOAc/PE 1:2): no detectable biphenylpropanoic acid | stability, 80°C ([2]; 80°C incubator): 100% | degradation products on TLC after thermal challenge ([2]; 80°C, TLC EtOAc/PE 1:2): no trace of biphenylpropanoic acid or other corresponding residuals | stability, 0.1NaOH ([2]; basic medium (pH 13.0)): 100% | inhibition on NAAA activity in intact cells (NAAA [3]): more than 60% | compound remaining, Rat Serum 8h [4]: 89% | compound remaining, Rat Serum 8h ([4]; listed as compound 16): 89% | compound remaining, Rat Serum 16h [4]: 64% | compound remaining, Rat Serum 16h ([4]; listed as compound 16): 64% | Vmax of NAAA activity (NAAA [5]; 5µM compound 16, […], n = 3): 5854 ± 511 pmol/min/mg | mode of NAAA inhibition (NAAA [5]; rapid dilution, dialysis and kinetic analysis): reversible and competitive | Km (NAAA [5]; read-out: Michaelis-Menten constant Km, 5µM compound 16, […]): 328 ± 98 µM | Ki (NAAA [5]; read-out: dissociation constant Ki, calculated from Km (inhibitor) = Km (1+[I]/Ki)): 5.65 µM | NAAA activity after dialysis of inhibitor-NAAA complex (NAAA [6]): almost completely restored the NAAA activity
